Results taken from ChEMBL document CHEMBL1146110, “QSAR study on topically acting sulfonamides incorporating GABA moieties: a molecular connectivity approach” (Bioorg Med Chem Lett, 2006).

Columns and labels:
Carbonic anhydrase 4 = biological target: T1, Carbonic anhydrase 4 (Bos taurus, UniProt Q95323)
T1 sequence (Q95323 whole entry): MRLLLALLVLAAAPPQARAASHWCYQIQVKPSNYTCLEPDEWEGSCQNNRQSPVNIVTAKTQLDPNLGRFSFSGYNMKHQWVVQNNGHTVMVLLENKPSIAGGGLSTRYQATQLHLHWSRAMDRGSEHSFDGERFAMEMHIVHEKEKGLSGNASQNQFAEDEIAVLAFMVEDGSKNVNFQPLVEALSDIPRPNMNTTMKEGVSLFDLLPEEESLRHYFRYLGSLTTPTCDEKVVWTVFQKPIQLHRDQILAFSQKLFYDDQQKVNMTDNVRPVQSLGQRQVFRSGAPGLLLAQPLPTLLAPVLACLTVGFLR

Carbonic anhydrase 1 = Carbonic anhydrase 1 (Homo sapiens, UniProt P00915)
Sequence of Carbonic anhydrase 1 (P00915 whole entry): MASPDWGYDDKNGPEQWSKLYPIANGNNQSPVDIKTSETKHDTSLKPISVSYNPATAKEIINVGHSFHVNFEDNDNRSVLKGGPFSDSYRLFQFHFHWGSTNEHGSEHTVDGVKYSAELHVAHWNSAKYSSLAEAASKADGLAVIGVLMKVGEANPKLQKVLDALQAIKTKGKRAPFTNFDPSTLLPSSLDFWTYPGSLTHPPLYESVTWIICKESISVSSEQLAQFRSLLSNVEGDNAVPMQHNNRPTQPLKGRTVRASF

Row | SMILES | Ki (Carbonic anhydrase 4) | Ki (Carbonic anhydrase 1)
1 | Cn1nc(S(N)(=O)=O)s/c1=N/S(=O)(=O)c1ccc(N)cc1 | 8 nM | 9 nM
2 | NCCCC(=O)Nc1ccc(S(N)(=O)=O)cc1Br | 60 nM | 520 nM
3 | NCCCC(=O)Nc1ccc(S(N)(=O)=O)cc1 | 164 nM | 15200 nM
4 | NCCCC(=O)NCc1ccc(S(N)(=O)=O)cc1 | 69 nM | –
5 | NCCCC(=O)Nc1ccc(S(=O)(=O)Nc2ccc(S(N)(=O)=O)cc2)cc1 | 75 nM | 63 nM
6 | NCCCC(=O)Nc1ccc(S(N)(=O)=O)cc1F | 38 nM | 530 nM
7 | NCCCC(=O)OCc1ccc(S(N)(=O)=O)cc1 | 180 nM | 1750 nM
8 | CCN(C(=O)CCCN)C1CC(C)S(=O)(=O)c2sc(S(N)(=O)=O)cc21 (stereo not drawn) | 32 nM | 56 nM
9 | NCCCC(=O)NNc1ccc(S(N)(=O)=O)cc1 | 305 nM | 22500 nM
10 | NCCCC(=O)Nc1cccc(S(N)(=O)=O)c1 | 215 nM | 17200 nM
11 | Cn1nc(S(N)(=O)=O)s/c1=N\C(=O)CCCN | 42 nM | 310 nM
12 | NCCCC(=O)Nc1nccc(Nc2ccc(S(N)(=O)=O)cc2)n1 | 50 nM | 51 nM
13 | Cn1nc(S(N)(=O)=O)s/c1=N/S(=O)(=O)c1ccc(NC(=O)CCCN)cc1 | – | 15 nM
14 | NCCCC(=O)NCCC(=O)Nc1nnc(S(N)(=O)=O)s1 | 15 nM | 24 nM
15 | NCCCC(=O)Nc1c(S(N)(=O)=O)cc(S(N)(=O)=O)c(Cl)c1Cl | 50 nM | 450 nM
16 | NCCCC(=O)Oc1ccc2nc(S(N)(=O)=O)sc2c1 | 12 nM | 15 nM
17 | NCCCC(=O)OCCOc1ccc2nc(S(N)(=O)=O)sc2c1 | 11 nM | 10 nM
18 | NCCCC(=O)Nc1nnc(S(N)(=O)=O)s1 | 43 nM | 300 nM
19 | NCCCC(=O)Nc1ccc(S(N)(=O)=O)cc1I | 56 nM | 500 nM
20 | NCCCC(=O)Nc1ccccc1S(N)(=O)=O | 243 nM | 20000 nM
21 | NCCCC(=O)Nc1cc(Cl)c(S(N)(=O)=O)cc1S(N)(=O)=O | 50 nM | 350 nM
22 | NCCCC(=O)Nc1ccc2nc(S(N)(=O)=O)sc2c1 | 12 nM | 14 nM
23 | NCCCC(=O)Nc1ccc(S(N)(=O)=O)cc1Cl | 63 nM | 560 nM
24 | NCCCC(=O)Nc1ccc(S(=O)(=O)Nc2cccc(S(N)(=O)=O)c2)cc1 | 67 nM | 61 nM
25 | NCCCC(=O)NCCc1ccc(S(N)(=O)=O)cc1 | 62 nM | –
26 | NS(=O)(=O)c1ccc(CCO)cc1 | 5 nM | –
